According to US11344601B2, “Tumor microenvironment-related target TAK1 and application thereof in inhibition of tumor” (Shanghai Institutes for Biological Sciences, Chinese …, priority 2017, dated 2022):

Tested on: SASP effectors
Assay: Genome-wide expression microarray of SASP effectors in PSC27 cells
Type: cell-based, human
Settings: bleomycin in combination with 5Z-7 vs bleomycin alone
Procedure: FIG. 34. After simultaneous treatment of PSC27 cells with bleomycin and/or 5Z-7, SB203580 (SB) and RAD001, total RNA was analyzed by microarray for expression-spectrum.
c. Experimental Treatment In Vitro • 100 nM docetaxel (DTX), 100 nM paclitaxel (PTX), 200 nM vincristine (VCR), 50 μg/ml bleomycin (BLEO), 1 μM mitoxantrone (MIT), or 10 Gy ^137CS ionizating radiation (γ-radiation at 743 rad/min, RAD) was added to the culture medium when PSC27 cells grown to 80% (PSC27-Pre) to produce cell damage. After drug treatment for 6 hours, the cells were simply washed by PBS for 3 times and kept in the culture medium for 7 to 10 days, followed by subsequent experiments. 2. Plasmid Preparation and Lentiviral Transfection • Full-length human IKKα and Flag were cloned as a fusion protein between the restriction sites BamHI and XbaI in the expression vector pCR3.1. Full-length human mTOR and GST were cloned as a fusion protein between a pair of NotI restriction sites in the expression vector pcDNA3. […] FV1000 laser scanning confocal microscopy (Olympus) was used to obtain cellular confocal fluorescence images to determine the extent of DNA damage. • Antibody anti-TAK1 used for histological IHC staining in clinical prostate, non-small cell lung cancer patients and breast cancer patients, was purchased from Proteintech, idib. […]

With COc1cc(O)c2c(c1)/C=C/C[C@H](O)[C@H](O)C(=O)/C=C\C[C@H](C)OC2=O [5Z-7, 5z-7-oxozeaenol] the “expression of SASP effectors” value was “significantly inhibited”.
